Results from patent publication US20240335402A1, “BIODEGRADABLE ANTI-INFECTIVE FORMULATIONS” (New Mexico Tech University Research Park Corporation, priority 2023, published 2024).

Test system: colistin (polymyxin E, or PME) resistant bacterium S. maltophilia
Assay: Spot test on lawn of colistin resistant bacterium
Assay type: cell-based
Conditions: 10 μL spotted, 37° C., 2 days

## O=C(O)CC[C@@H](C(=O)O)N(CC(=O)O)CC(=O)O [GLDA, N,N-Dicarboxymethyl glutamic acid]
  activity / kill of S. maltophilia lawn: did not work as well as CTAC
